Test results as given in ChEMBL document CHEMBL5233229, “Recent advances in the development of ubiquitin-specific-processing protease 7 (USP7) inhibitors” (Eur J Med Chem, 2020).

Key:
[1] = target: T1, Ubiquitin carboxyl-terminal hydrolase 7 (Homo sapiens, UniProt Q93009); test: Inhibition of human USP7 using ubiquitin-Rh110 as substrate incubated for 30 mins by Fluorometric plate reader analysis
HCT-116 = test: Anticancer activity against human HCT-116 cells assessed as cell growth inhibition incubated for 6 days by MTT assay; format: functional; details: HCT-116, 144 h, time 6 day, read-out: LD50 (the source's name)
[2] = Inhibition of USP2a (unknown origin); parameters: species or system Homo sapiens
[3] = target: T2, Ubiquitin carboxyl-terminal hydrolase 8 (Homo sapiens, UniProt P40818); test: Inhibition of human USP8 using Ub-AMC as substrate
T2 sequence (P40818 whole entry): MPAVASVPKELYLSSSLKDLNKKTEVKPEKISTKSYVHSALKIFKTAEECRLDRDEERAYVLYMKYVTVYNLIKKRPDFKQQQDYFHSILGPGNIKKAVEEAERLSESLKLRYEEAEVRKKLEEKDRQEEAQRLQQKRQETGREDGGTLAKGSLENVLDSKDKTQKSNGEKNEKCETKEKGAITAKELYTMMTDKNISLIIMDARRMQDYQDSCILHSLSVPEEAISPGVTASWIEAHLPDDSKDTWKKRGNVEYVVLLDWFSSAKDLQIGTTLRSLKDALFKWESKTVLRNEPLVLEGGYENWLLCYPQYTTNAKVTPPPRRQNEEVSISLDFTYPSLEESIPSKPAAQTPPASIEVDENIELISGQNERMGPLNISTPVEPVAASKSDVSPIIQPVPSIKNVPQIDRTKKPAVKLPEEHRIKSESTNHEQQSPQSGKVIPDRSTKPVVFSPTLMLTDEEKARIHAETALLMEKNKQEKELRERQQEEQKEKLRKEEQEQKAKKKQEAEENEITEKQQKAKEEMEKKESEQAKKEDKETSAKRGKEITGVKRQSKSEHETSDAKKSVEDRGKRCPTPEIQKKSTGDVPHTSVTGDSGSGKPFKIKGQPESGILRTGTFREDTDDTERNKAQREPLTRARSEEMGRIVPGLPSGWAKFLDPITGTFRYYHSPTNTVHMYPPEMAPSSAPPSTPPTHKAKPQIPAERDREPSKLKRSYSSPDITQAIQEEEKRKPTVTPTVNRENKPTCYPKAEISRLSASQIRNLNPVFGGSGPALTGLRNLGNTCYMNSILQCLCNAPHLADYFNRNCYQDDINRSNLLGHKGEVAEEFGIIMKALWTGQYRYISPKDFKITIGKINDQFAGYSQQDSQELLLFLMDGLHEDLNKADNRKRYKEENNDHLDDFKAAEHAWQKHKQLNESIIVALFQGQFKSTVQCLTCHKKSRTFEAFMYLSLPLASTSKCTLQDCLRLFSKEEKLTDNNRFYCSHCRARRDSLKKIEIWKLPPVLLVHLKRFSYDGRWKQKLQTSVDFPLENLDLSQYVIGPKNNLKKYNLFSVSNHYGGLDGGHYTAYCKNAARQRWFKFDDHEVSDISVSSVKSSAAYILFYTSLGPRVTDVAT

[4] = target: T1, Ubiquitin carboxyl-terminal hydrolase 7; test: Inhibition of human USP7 using Ub-AMC as substrate
[5] = target: T1, Ubiquitin carboxyl-terminal hydrolase 7; test: Inhibition of USP7 (unknown origin) by Ub-PLA2 assay
[6] = target: T3, Ubiquitin carboxyl-terminal hydrolase 47 (Homo sapiens, UniProt Q96K76); test: Inhibition of USP47 (unknown origin)
T3 sequence (Q96K76 whole entry): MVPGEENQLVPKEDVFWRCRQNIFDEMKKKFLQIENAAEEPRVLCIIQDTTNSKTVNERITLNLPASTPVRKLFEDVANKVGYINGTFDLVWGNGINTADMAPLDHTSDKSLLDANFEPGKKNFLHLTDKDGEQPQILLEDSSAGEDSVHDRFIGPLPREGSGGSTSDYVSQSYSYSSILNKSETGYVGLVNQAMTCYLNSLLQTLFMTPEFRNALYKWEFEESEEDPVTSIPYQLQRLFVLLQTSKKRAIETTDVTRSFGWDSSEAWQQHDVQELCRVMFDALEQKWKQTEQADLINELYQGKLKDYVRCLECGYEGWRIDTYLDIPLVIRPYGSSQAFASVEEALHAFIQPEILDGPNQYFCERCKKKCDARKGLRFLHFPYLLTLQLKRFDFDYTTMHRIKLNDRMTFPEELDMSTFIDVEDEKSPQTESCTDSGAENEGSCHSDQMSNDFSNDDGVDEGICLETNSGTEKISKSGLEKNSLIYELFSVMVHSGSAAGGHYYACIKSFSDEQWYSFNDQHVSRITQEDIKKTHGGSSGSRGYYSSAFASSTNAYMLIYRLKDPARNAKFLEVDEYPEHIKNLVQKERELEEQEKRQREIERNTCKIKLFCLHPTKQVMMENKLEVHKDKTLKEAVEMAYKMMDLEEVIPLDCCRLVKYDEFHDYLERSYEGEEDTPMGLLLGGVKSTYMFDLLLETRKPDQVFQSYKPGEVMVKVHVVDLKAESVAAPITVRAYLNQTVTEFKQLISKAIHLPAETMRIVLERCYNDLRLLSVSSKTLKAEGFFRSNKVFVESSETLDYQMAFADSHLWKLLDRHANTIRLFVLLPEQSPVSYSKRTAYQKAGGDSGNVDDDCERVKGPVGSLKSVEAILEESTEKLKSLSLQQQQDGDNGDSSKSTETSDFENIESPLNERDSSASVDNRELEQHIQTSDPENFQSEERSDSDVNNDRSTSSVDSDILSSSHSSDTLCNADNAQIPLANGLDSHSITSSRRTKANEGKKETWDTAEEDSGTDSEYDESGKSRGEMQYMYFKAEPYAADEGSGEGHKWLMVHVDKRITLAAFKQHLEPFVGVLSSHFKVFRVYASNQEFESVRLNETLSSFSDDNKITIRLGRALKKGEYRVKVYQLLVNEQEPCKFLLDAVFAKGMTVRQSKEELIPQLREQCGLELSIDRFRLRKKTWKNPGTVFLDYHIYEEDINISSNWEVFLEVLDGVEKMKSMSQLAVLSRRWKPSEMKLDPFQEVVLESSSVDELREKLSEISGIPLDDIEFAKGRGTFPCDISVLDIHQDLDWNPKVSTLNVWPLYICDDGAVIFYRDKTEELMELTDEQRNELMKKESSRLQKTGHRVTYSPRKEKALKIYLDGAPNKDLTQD

[7] = target: T1, Ubiquitin carboxyl-terminal hydrolase 7; test: Inhibition of human USP7 using UbA10 as substrate incubated for 10 mins by TR-FRET assay

T1 sequence (Q93009 whole entry): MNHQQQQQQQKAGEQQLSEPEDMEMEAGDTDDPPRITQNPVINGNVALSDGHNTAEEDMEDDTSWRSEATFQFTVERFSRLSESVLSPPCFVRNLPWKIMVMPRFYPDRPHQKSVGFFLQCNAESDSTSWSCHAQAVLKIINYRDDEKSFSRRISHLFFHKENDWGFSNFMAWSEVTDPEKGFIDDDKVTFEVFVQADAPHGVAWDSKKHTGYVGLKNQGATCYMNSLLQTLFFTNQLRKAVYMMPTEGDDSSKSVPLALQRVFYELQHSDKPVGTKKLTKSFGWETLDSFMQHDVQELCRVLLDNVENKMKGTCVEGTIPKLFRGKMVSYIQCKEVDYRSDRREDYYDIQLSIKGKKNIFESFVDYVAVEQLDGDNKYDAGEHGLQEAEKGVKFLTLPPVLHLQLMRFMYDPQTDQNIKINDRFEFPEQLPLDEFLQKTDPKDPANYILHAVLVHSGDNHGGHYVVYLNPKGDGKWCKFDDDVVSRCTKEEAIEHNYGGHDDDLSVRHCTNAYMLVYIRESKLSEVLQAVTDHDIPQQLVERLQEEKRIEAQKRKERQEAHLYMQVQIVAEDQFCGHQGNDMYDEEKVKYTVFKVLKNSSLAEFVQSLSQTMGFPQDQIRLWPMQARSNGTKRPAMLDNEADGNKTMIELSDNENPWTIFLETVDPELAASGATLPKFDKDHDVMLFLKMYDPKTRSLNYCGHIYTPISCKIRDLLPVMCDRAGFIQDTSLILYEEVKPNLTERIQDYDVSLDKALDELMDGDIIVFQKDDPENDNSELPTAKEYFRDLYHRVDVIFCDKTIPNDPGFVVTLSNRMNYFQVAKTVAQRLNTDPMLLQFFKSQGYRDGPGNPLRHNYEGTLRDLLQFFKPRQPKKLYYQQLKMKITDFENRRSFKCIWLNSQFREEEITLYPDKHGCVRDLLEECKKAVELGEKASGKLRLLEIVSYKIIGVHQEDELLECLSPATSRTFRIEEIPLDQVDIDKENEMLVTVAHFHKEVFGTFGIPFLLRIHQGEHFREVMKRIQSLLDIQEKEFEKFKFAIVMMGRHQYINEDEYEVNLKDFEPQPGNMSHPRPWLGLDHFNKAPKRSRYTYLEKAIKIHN

C[C@@]12CCCc3coc(c31)C(=O)c1cc3c(cc12)C(=O)C=C(c1cc(OS(=O)(=O)O)c2cc4c(cc2c1O)C(=O)c1occ2c1[C@@]4(C)CCC2)C3=O
IC50 [1]: 1.2 µM

C[C@H](CC(=O)O)[C@H]1CC[C@H]2[C@@H]3CC[C@@H]4CC(=O)CC[C@]4(C)[C@H]3CC[C@]12C
CC50 (HCT-116): > 50 µM
IC50 [2]: 32 µM

N#Cc1nc2c(nc1C#N)-c1cc(Cl)ccc1C2=O
IC50 [3]: 0.133 µM
IC50 [4]: 2.55 µM

CC(=O)c1cc([N+](=O)[O-])c(Sc2cccc(Cl)c2)s1
IC50 [5]: 7 µM

CCc1cc([N+](=O)[O-])c(Sc2cccc(Cl)c2Cl)s1
IC50 [5]: > 50 µM

C[C@@]12CCC(=O)c3coc(c31)C(=O)c1cc3c(cc12)C(=O)C=CC3=O [HELENAQUINONE]
IC50 [1]: 1.3 µM

C[C@H](CC(N)=O)[C@H]1CC[C@H]2[C@@H]3CC[C@@H]4C[C@H](O)CC[C@]4(C)[C@H]3CC[C@]12C
CC50 (HCT-116): 24.5 µM
IC50 [2]: 27.9 µM

C[C@@]12CCCc3c(CCO)oc(c31)C(=O)c1cc3c(cc12)C(=O)C=CC3=O
IC50 [1]: 1.4 µM

C[C@@]12CCCc3coc(c31)C(=O)c1cc3c(cc12)C(=O)C=C(C1=CC(=O)c2cc4c(cc2C1=O)C(=O)c1occ2c1[C@@]4(C)CCC2)C3=O
IC50 [1]: 0.35 µM

CC(=O)O[C@@H]1CC[C@@]2(C)[C@H](CC[C@@H]3[C@@H]2CC[C@]2(C)[C@@H]([C@H](C)CC(=O)O)CC[C@@H]32)C1
CC50 (HCT-116): 23.2 µM
IC50 [2]: 5.8 µM

N#Cc1nc2c(nc1C#N)-c1ccc(O)cc1C2=O
IC50 [6]: 66 µM

N#Cc1nc2c(nc1C#N)C1(OCCO1)c1ccccc1-2
IC50 [6]: > 100 µM
IC50 [4]: > 100 µM

N#Cc1nc2c(nc1N1CCC(F)(F)CC1)-c1ccccc1C2=O
IC50 [6]: > 100 µM

CC(=O)c1cc([N+](=O)[O-])c(Sc2ccc(Cl)cc2Cl)s1
IC50 [5]: 6.5 µM

CCO/C(O)=C(\C#N)c1nc2c(nc1C#N)C(=O)c1ccccc1-2
IC50 [3]: > 100 µM
IC50 [4]: > 100 µM

COc1nc2c(nc1C#N)C(=O)c1ccccc1-2
IC50 [6]: > 100 µM

CCOc1nc2c(nc1C#N)C(=O)c1ccccc1-2
IC50 [3]: > 100 µM
IC50 [4]: > 100 µM

C[C@@]12CCCc3coc(c31)C(=O)c1cc3c4c(cc(OS(=O)(=O)O)c3cc12)[C@@]12CCC[C@@]3(C)c5cc6c(OS(=O)(=O)O)ccc(O)c6cc5C(=O)[C@@](O)(OC1)[C@@]23O4
IC50 [1]: > 5 µM

CC(=O)c1cc([N+](=O)[O-])c(Sc2ccccc2Cl)s1
IC50 [5]: 12.9 µM

CCc1c(-c2ccc(O)cc2)cnc(N)c1-c1ccc2cn[nH]c2c1
IC50 [7]: 0.61 µM

C[C@H](CC(=O)NCCS(=O)(=O)O)[C@H]1CC[C@H]2[C@@H]3[C@H](O)C[C@@H]4C[C@H](O)CC[C@]4(C)[C@H]3C[C@H](O)[C@]12C
CC50 (HCT-116): > 50 µM

N#CNc1nc2c(nc1C#N)C(=O)c1ccccc1-2
IC50 [6]: > 100 µM

C[C@@]12CCCc3coc(c31)C(=O)c1cc3c(cc12)C(=O)C=C([C@]12CCC[C@@]4(C)c5cc6c(OS(=O)(=O)O)ccc(O)c6cc5C(=O)O[C@]14C(=O)OC2)C3=O
IC50 [1]: 2 µM

C[C@H](C1=CC(=O)c2cc3c(cc2C1=O)C(=O)c1occ2c1[C@@]3(C)CCC2)C1=CC(=O)c2cc3c(cc2C1=O)[C@]1(C)CCCc2coc(c21)C3=O
IC50 [1]: 0.49 µM

CCCCc1cc([N+](=O)[O-])c(Sc2ccc(Cl)cc2Cl)s1
IC50 [5]: 13.9 µM

N#Cc1nc2c(nc1N)-c1ccccc1C2=O
IC50 [6]: > 100 µM

COCCOc1nc2c(nc1C#N)C(=O)c1ccccc1-2
IC50 [6]: > 100 µM

C[C@@]12CCCc3coc(c31)C(=O)c1cc3c(cc12)CC1=C2N(CCS1(=O)=O)[C@@H](O)C[C@]23O
IC50 [1]: > 5 µM

C[C@@]12CCCc3coc(c31)C(=O)c1cc3c(cc12)CC1=C2N(CCS1(=O)=O)[C@H](O)C[C@@]23O
IC50 [1]: > 5 µM

N#Cc1nc2c(nc1C#N)-c1ccc(F)cc1C2=O
IC50 [6]: 4.3 µM

C[C@@]12CCCc3coc(c31)C(=O)c1cc3c(cc12)[C@@]1(O)C[C@@H](O)N2CCS(=O)(=O)C(=C21)C3=O
IC50 [1]: > 5 µM

C[C@H](CC(=O)NO)[C@H]1CC[C@H]2[C@@H]3CC[C@@H]4C[C@H](O)CC[C@]4(C)[C@H]3CC[C@]12C
CC50 (HCT-116): 27.8 µM
IC50 [2]: 9.7 µM

Nc1ncc(-c2ccc(O)cc2)cc1-c1ccc(O)cc1
IC50 [7]: > 50 µM

C[C@H](CC(=O)O)[C@H]1CC[C@H]2[C@@H]3[C@H](O)C[C@@H]4C[C@H](O)CC[C@]4(C)[C@H]3C[C@H](O)[C@]12C
CC50 (HCT-116): > 50 µM

C[C@@]12CCCc3coc(c31)Cc1cc3c(cc12)C(=O)C(C1=CC(=O)c2cc4c(cc2C1=O)C(=O)c1occ2c1[C@@]4(C)CCC2)=CC3=O
IC50 [1]: 0.47 µM

CC(=O)c1cc([N+](=O)[O-])c(Sc2cc(Cl)cc(Cl)c2)s1
IC50 [5]: 6.4 µM

C[C@H](CC(=O)NCC#N)[C@H]1CC[C@H]2[C@@H]3CC[C@@H]4C[C@H](O)CC[C@]4(C)[C@H]3C[C@H](O)[C@]12C
CC50 (HCT-116): 28 µM
IC50 [2]: 7.4 µM

CC(O)c1cc([N+](=O)[O-])c(Sc2ccc(Cl)cc2Cl)s1 (configuration not stated)
IC50 [5]: 20.1 µM

C[C@H](CC(=O)NCC(=O)O)[C@H]1CC[C@H]2[C@@H]3CC[C@@H]4C[C@H](O)CC[C@]4(C)[C@H]3CC[C@]12C
CC50 (HCT-116): > 100 µM
IC50 [2]: > 50 µM

COC(=O)C[C@@H](C)[C@H]1CC[C@H]2[C@@H]3CC[C@@H]4C[C@H](O)CC[C@]4(C)[C@H]3CC[C@]12C
CC50 (HCT-116): 20.5 µM
IC50 [2]: > 50 µM

N#Cc1nc2c(nc1C#N)-c1ccccc1C2=O
IC50 [6]: 3.5 µM

Nc1ncc(-c2ccccc2)cc1-c1ccc(O)cc1
IC50 [7]: 9.6 µM

C[C@H](CC(=O)N1CCOCC1)[C@H]1CC[C@H]2[C@@H]3CC[C@@H]4C[C@H](O)CC[C@]4(C)[C@H]3CC[C@]12C
CC50 (HCT-116): 8.2 µM
IC50 [2]: > 100 µM

C[C@@]12CCCc3coc(c31)C(=O)c1cc3c(cc12)[C@]1(O)C[C@H](O)N2CCS(=O)(=O)C(=C21)C3=O
IC50 [1]: > 5 µM

CC(=O)c1cc([N+](=O)[O-])c(Sc2ccc(Cl)cc2)s1
IC50 [5]: 11.8 µM
